# Laboratory results as given in patent US11124510B2, “Alkyl chain modified imidazoquinoline TLR7/8 agonist compounds and uses thereof” (Dynavax Technologies Corporation, priority 2017, dated 2021).
# How the values were obtained:
# CT26 colon carcinoma [1] = test: Anti-tumor efficacy in combination with anti-PD-1 antibody in dual flank CT26 colon carcinoma-bearing mice; format: in vivo; conditions: for tumor growth inhibition in the injected tumor (right flank) compared to the anti-PD-1 treatment alone / tumor growth inhibition in the distal tumor (left flank) compared to the anti-PD-1 treatment alone: 5,000 ng single intratumoral dose day 14, in combination with anti-PD-1; for tumor growth inhibition in the distal tumor (left flank) compared to the anti-PD-1 treatment alone: day 29; for injected tumor growth inhibition, difference from the anti-PD-1 treatment control at day 29: 5,000 ng single intratumoral dose, in combination with anti-PD-1, Kruskall-Wallis/Dunn
# Experimental: All in vivo procedures were conducted in accordance with approved IACUC protocols. The animals were housed in a facility that is accredited by the AALAC. Wild-type female Balb/c mice (15-20 g) were obtained from Envigo (Hayward, Calif.) and acclimated for 2-3 days prior to use.
# The pharmaceutical compositions were made using Compound No. 63-10 or 63-33 at final concentrations of 50,000 ng/mL in a manner similar to that described for Example B2-1. […] On day 0, mice were anesthetized with 1% isoflurane, and 80,000 CT26 tumor cells in 200 uL of RMPI-1640 culture media plus 2.5% fetal bovine serum were injected subcutaneously in both the right and left flanks. Tumors (left and right) were allowed to grow until day 8, when the right and left flank tumor sizes had reached approximately 35 mm^3, at which point mice were injected intraperitoneally with 250 μg of anti-PD-1 antibody formulated in phosphate buffered saline or a phosphate buffered saline vehicle control. The anti-PD-1 treatments were repeated on experimental days 12, 15, 19, 22, and 26. On experimental day 14, when the right (injected) and left (distal) flank tumors had reached approximately 100 mm^3, mice were randomized into treatment groups. […] Tumor sizes were measured twice weekly from days 14 through day 29 with calipers, with tumor volumes calculated using the formula: length, multiplied by width, multiplied by width, divided by 2.
# serum IL-6 and IL-12p40 = test: In vivo systemic immune activation assay: serum IL-6 and IL-12p40 by ELISA after single subcutaneous injection; design: species or system mice; conditions: 5 μg subcutaneously in footpad, 95% sesame oil/5% ethanol, ± SEM
# Experimental: Small molecule TLR7 and TLR7/8 agonists derived from the 1H-imidazo[4,5-c]quinoline privileged template (see e.g., Imiquimod, Resiquimod) are known to rapidly distribute to the systemic compartment following intratumoral, subcutaneous, or intramuscular injection. Broad systemic distribution of these agonist compounds in wild-type mice induces TLR7-dependent cytokine responses, primarily in spleen and liver cells, which can subsequently be detected in the serum within 3-6 hours. The rapid increase in serum cytokine biomarkers (e.g., IL-6 and IL-12p40) can be used to assess the kinetics of systemic distribution of a locally administered TLR agonist.
# The kinetics of distribution of pharmaceutical compositions comprised of Compound Nos. 63-00, 63-17, or 63-10 formulated in 95% sesame oil/5% ethanol (v/v) were assessed following a single subcutaneous injection in wild-type mice. All in vivo procedures were conducted in accordance with approved Institutional Animal Care and Use Committee (IACUC) protocols. The animals were housed in a facility that is accredited by the Association for Accreditation and Laboratory Animal Care (AALAC, Frederick Md.). Wild-type female BALB/c mice (15-20 gm) were obtained from Envigo (Hayward, Calif.) and acclimated for 2-3 days prior to use.
# The pharmaceutical compositions were made with the three compounds, at a final concentration of 200 μg/mL, in a manner similar to that described in Example B2-1. At T=0, groups of 3 mice were anesthetized with 1% isoflurane and injected subcutaneously in the right footpad with 5 μg of each of the three compounds, or a vehicle control, in 25 uL of 95% sesame oil/5% ethanol (v/v). Then, at T=3, 6, and 24 hours, three animals from each group were anesthetized with 1% isoflurane to facilitate blood collection by cardiac puncture. Samples were processed to serum, and stored at −20° C. for further analysis.
# TLR7 = TLR7 (Homo sapiens (Human), UniProt Q9NYK1); test: TLR7 agonist bioactivity: induction of IFNα protein in pDC-enriched PBMC cultures (ELISA, 24 h); format: cell-based; conditions: for TLR7 (% of Compound No. 63-00 EC50 Value): EC50 expressed as percentage of EC50 of Compound No. 63-00; for EC50: IFNα induction, pDC-enriched human PBMC, 24 hours; for fold loss of TLR7 agonist potency compared to Compound No. 63-00 (IMDQ): less potent than IMDQ
# Chain of TLR7 (Q9NYK1 27-1049): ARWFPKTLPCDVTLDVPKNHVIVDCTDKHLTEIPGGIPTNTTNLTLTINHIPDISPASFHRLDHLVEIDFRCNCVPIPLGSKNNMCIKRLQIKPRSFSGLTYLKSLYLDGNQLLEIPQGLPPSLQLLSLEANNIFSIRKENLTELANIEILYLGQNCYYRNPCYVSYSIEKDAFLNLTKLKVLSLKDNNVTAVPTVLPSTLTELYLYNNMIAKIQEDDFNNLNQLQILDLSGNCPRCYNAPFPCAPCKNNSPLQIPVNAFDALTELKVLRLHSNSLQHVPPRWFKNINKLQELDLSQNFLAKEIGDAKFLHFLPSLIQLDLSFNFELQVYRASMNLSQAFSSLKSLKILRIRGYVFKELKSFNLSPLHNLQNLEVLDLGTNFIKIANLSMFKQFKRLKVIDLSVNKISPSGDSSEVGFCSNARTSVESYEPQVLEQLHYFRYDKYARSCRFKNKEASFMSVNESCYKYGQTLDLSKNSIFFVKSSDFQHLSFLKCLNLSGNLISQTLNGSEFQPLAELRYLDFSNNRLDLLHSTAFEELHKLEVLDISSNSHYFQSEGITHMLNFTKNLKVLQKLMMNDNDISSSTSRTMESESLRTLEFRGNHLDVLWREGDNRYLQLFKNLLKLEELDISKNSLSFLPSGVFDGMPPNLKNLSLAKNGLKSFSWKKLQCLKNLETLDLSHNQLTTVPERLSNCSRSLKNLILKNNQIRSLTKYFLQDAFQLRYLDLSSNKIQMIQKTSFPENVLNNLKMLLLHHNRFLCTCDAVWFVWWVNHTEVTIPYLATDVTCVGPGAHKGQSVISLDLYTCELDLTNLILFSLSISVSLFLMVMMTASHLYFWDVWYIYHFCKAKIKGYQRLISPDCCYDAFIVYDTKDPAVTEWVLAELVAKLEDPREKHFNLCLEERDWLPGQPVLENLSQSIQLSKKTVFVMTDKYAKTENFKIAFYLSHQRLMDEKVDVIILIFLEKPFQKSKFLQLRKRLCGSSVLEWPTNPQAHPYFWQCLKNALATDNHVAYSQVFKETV
# Experimental: Plasmacytoid dendritic cell (pDC)—enriched peripheral blood mononuclear cells (PBMCs) were prepared from the blood of a series of human donors (3-5 donors/experiment). PBMCs were isolated using Ficoll-Paque Premium® (GE Healthcare, Chicago Ill.) using methods well known to those in the art. pDCs were magnetically isolated from the total recovered PBMC population using CD304 (BDCA-4/Neuropilin-1) microbeads (Miltenyi Biotec, San Diego Calif.), according to the manufacturer's instructions. Isolated pDCs were then added back to between 1 and 2×10^8 of the corresponding donor's PBMCs for relative enrichment of this cell type. […] Culture supernatants were collected and interferon-alpha (IFNα) protein levels were measured by ELISA (MabTech, Cincinnati Ohio), according to the manufacturer's instructions.
# TLR8 = TLR8 (Homo sapiens (Human), UniProt Q9NR97); test: TLR8 agonist bioactivity: induction of TNFα protein in monocyte cultures (ELISA, 24 h); format: cell-based; conditions: for EC50: TNFα induction, human monocytes, 24 hours; for fold increase of TLR8 agonist potency compared to Compound No. 63-00 (IMDQ): more potent than IMDQ; for TLR8 (% of Compound No. 63-00 EC50 Value): EC50 expressed as percentage of EC50 of Compound No. 63-00
# Chain of TLR8 (Q9NR97 27-1041): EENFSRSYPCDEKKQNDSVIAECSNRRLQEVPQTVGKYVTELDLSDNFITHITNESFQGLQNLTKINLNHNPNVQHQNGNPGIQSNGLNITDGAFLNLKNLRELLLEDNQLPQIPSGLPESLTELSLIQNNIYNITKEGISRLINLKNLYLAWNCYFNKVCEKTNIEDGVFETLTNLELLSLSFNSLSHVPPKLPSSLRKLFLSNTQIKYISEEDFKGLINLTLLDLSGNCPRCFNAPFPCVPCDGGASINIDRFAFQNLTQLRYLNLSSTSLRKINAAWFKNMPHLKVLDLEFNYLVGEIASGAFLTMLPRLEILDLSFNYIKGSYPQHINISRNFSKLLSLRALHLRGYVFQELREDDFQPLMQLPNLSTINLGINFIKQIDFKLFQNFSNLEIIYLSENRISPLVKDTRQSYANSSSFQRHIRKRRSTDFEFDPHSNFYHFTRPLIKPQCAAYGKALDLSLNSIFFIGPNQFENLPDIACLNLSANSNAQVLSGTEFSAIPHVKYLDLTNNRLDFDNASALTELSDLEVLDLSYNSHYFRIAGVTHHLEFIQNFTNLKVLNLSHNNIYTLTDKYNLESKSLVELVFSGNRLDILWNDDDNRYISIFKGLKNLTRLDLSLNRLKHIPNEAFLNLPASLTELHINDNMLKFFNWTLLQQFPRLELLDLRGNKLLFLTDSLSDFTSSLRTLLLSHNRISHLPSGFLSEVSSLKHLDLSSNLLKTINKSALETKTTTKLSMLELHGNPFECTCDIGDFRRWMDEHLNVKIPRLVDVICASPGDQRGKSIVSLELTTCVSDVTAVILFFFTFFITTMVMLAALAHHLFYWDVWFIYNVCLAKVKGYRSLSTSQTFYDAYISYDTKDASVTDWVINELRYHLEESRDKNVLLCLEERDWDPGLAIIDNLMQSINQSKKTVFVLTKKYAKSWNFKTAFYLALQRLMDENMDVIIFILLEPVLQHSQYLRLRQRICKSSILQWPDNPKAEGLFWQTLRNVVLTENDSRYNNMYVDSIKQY
# Experimental: Monocytes were magnetically isolated from PBMCs, prepared as described above, following labeling with CD14 microbeads (Miltenyi Biotec, San Diego Calif.), according to the manufacturer's instructions. […] Culture supernatants were collected and tumor necrosis factor alpha (TNFα) protein levels were measured by ELISA (MabTech, Cincinnati Ohio), according to the manufacturer's instructions.
# CT26 colon carcinoma [2] = test: Anti-tumor efficacy, repeated intratumoral dosing in CT26 colon carcinoma-bearing wild-type mice; format: in vivo; conditions: 0.5-20 μg in 95% sesame oil/5% ethanol
# Experimental: The effect of repeated weekly doses of intratumorally delivered pharmaceutical compositions comprised of Compound No. 63-10, 63-18, or 63-33 formulated in 95% sesame oil/5% ethanol (v/v) on tumor growth inhibition was assessed in syngeneic CT26 colon carcinoma-bearing Balb/c mice. All in vivo procedures were conducted in accordance with approved Institutional Animal Care and Use Committee (IACUC) protocols. The animals were housed in a facility that is accredited by the Association for Accreditation and Laboratory Animal Care (AALAC, Frederick, Md.). Wild-type female Balb/c mice (15-20 gm) were obtained from Envigo (Hayward, Calif.) and acclimated for 2-3 days prior to use.
# The pharmaceutical compositions were made with the three compounds at final concentrations of 5, 50, and 200 μg/mL in a manner similar to that described in Example B2-1. […] On day 0, mice were anesthetized with 1% isoflurane and 80,000 CT26 tumor cells in 200 uL of RMPI-1640 culture media plus 2.5% fetal bovine serum were injected subcutaneously in the right flank. Tumors were allowed to grow until they were ˜35 mm^3, at which point animals were assigned to groups to begin treatment. Mice were injected weekly for 4 weeks intratumorally with 100 uL of a pharmaceutical composition comprising 20, 5, or 0.5 μgs of Compound No. 63-10, or 20 or 5 μgs of Compound Nos. 63-18, or 63-33 formulated in 95% sesame oil/5% ethanol (v/v), or a vehicle control, twice weekly for 3 weeks (experimental days 9, 12, 16, 19, 23, and 26). The TLR9 CpG agonist was injected intratumorally with 100 μL of a pharmaceutical composition comprised of 50 μgs of compound formulated in phosphate buffered saline on the same dosing schedule. Tumor sizes were measured twice weekly from days 8 through day 30 with calipers, with tumor volumes calculated using the formula: length, multiplied by width, multiplied by width, divided by 2.
SMILES,tumor growth inhibition in the injected tumor (right flank) compared to the anti-PD-1 treatment alone (CT26 colon carcinoma [1]),tumor growth inhibition in the distal tumor (left flank) compared to the anti-PD-1 treatment alone (CT26 colon carcinoma [1]),"injected tumor growth inhibition, difference from the anti-PD-1 treatment control at day 29 (CT26 colon carcinoma [1])",serum IL-6 (serum IL-6 and IL-12p40; 3 hours) [pg/mL],serum IL-12p40 (serum IL-6 and IL-12p40; 3 hours),serum IL-6 (serum IL-6 and IL-12p40; 6 hours) [pg/mL],serum IL-12p40 (serum IL-6 and IL-12p40; 6 hours),serum IL-6 (serum IL-6 and IL-12p40; 24 hours) [pg/mL],serum IL-12p40 (serum IL-6 and IL-12p40; 24 hours),TLR7 (% of Compound No. 63-00 EC50 Value) (TLR7) [%],EC50 (TLR7) [nM],fold loss of TLR7 agonist potency compared to Compound No. 63-00 (IMDQ) (TLR7) [fold],EC50 (TLR8) [nM],CT26 tumor growth control compared to the vehicle control (CT26 colon carcinoma [2]),fold increase of TLR8 agonist potency compared to Compound No. 63-00 (IMDQ) (TLR8),TLR8 (% of Compound No. 63-00 EC50 Value) (TLR8) [%]
"CCCCc1nc2c(N)nc3ccccc3c2n1Cc1ccc(CN)cc1 [Compound No. 63-00, 1-(4-(aminomethyl)benzyl)-2-butyl-1H-imidazo[4,5-c]quinolin-4-amine, reference compound]",greater tumor growth inhibition,trend towards greater tumor growth inhibition,significantly different,772 ± 141,"139,767±31,024 pg/mL",160 ± 19,"142,359±22,350 pg/mL",32 ± 2,"7,796±1,545 pg/mL",100,,,,,,
"CCCCCNCc1ccc(Cn2c(CCCC)nc3c(N)nc4ccccc4c32)cc1 [Compound No. 63-17, 2-butyl-1-(4-((pentylamino)methyl)benzyl)-1H-imidazo[4,5-c]quinolin-4-amine]",,,,853 ± 539,"84,731±32,530 pg/mL",414 ± 105,"258,645±19,982 pg/mL",33 ± 4,"19,546±2,116 pg/mL",,2,2,104,,,
"CCCCCCNCc1ccc(Cn2c(CCCC)nc3c(N)nc4ccccc4c32)cc1 [Compound No. 63-18, 2-butyl-1-(4-((hexylamino)methyl)benzyl)-1H-imidazo[4,5-c]quinolin-4-amine]",,,,,,,,,,,15,,213,robust CT26 tumor growth control,slightly improved,
"CCCCc1nc2c(N)nc3ccccc3c2n1Cc1ccc(CNCCC2CC2)cc1 [Compound No. 63-33, 2-butyl-1-(4-(((2-cyclopropylethyl)amino)methyl)benzyl)-1H-imidazo[4,5-c]quinolin-4-amine]",greater tumor growth inhibition,trend towards greater tumor growth inhibition,significantly different,,,,,,,290,4,4,75,robust CT26 tumor growth control,2.9 fold,41
"CCCCc1nc2c(N)nc3ccccc3c2n1Cc1ccc(CNCC2(C)CCC2)cc1 [Compound No. 63-45, 2-butyl-1-(4-((((1-methylcyclobutyl)methyl)amino)methyl)benzyl)-1H-imidazo[4,5-c]quinoline-4-amine]",,,,,,,,,,190,,1.9,,,7.7 fold,13
"CCCCc1nc2c(N)nc3ccccc3c2n1Cc1ccc(CNCC2CC(C)C2)cc1 (stereo not shown) [Compound No. 63-46, 2-butyl-1-(4-((((3-methylcyclobutyl)methyl)amino)methyl)benzyl)-1H-imidazo[4,5-c]quinolin-4-amine]",,,,,,,,,,400,,,,,,39
"CCCCc1nc2c(N)nc3ccccc3c2n1Cc1ccc(CNCC(C)(C)C2CCC2)cc1 [Compound No. 63-47, 2-butyl-1-(4-(((2-cyclobutyl-2-methylpropyl)amino)methyl)benzyl)-1H-imidazo[4,5-c]quinolin-4-amine]",,,,,,,,,,900,,9.0,,,slightly improved to slightly inferior,108
